Source: ChEMBL document CHEMBL6074706, “Inhibition of the Binding of Interleukin 17A with Interleukin 17A Receptor as a Treatment for Immune System and Inflammation Disorders, Cancer, and Neurodegenerative Diseases” (ACS Med Chem Lett, 2024)

Assay: Inhibition of human IL-17A binding to recombinant human Fc-tagged IL-17RA preincubated with IL-17A for 30 mins followed by receptor addition and measured after 90 mins by AlphaLISA plate reader analysis

SMILES | IC50
C[C@H]1CC[C@H]([C@H](NC(=O)c2nonc2C2CC2)C(=O)Nc2cc(CN3C[C@@H](C(F)(F)F)NC3=O)ccn2)CC1 | 0.025 µM
CCc1ncoc1C(=O)N[C@H](C(=O)Nc1cc(C[C@H]2C[C@@H](C(F)(F)F)NC2=O)ccn1)C1CCC(F)(F)CC1 | 0.465 µM
COCC(c1ccnc(NC(=O)[C@@H](NC(=O)c2nonc2C2CC2)[C@H]2CC[C@H](C)CC2)c1)N1C[C@@H](C(F)(F)F)NC1=O (some centres undefined) | 0.011 µM
CC(C)(C)OC(=O)N[C@H](C(=O)Nc1cc(CN2C[C@@H](C(F)(F)F)NC2=O)ccn1)[C@H]1CC[C@H](C)CC1 | 0.148 µM
CCc1nonc1C(=O)N[C@H](C(=O)Nc1cc([C@@H](COC)N2CC(F)(F)CNC2=O)ccn1)C1CCC(F)(F)CC1 | 0.019 µM
CC1(C)CN(Cc2ccnc(NC(=O)[C@@H](NC(=O)c3nonc3C3CC3)[C@H]3CC[C@H](C)CC3)c2)C(=O)N1 | 0.105 µM
COCC(NC(=O)CCC(F)(F)F)c1ccnc(NC(=O)[C@@H](NC(=O)c2ccnn2C(C)C)C2CCC(F)(F)CC2)c1 (some centres undefined) | 1.36 µM
CCc1nocc1C(=O)N[C@H](C(=O)Nc1cc([C@@H](COC)N2C[C@@H](C(F)(F)F)NC2=O)ccn1)[C@H]1CCCC(F)(F)C1 | 0.051 µM
CCC[C@H](c1ccnc(NC(=O)[C@@H](NC(=O)c2nocc2CC)C2CCC(F)(F)CC2)c1)N1C[C@@H](C(F)(F)F)NC1=O | 0.018 µM
CCc1nonc1C(=O)NC(C(=O)Nc1cc([C@@H](COC)N2C[C@@H](C(F)(F)F)NC2=O)ccn1)C1CCC(F)CC1 (some centres undefined) | 0.017 µM

The remaining lines, values ahead:

IC50 | SMILES
8.97 µM | Cn1nccc1C(=O)N[C@H](C(=O)Nc1cc(OC2CCNC2=O)ccn1)[C@H]1CC[C@H](C)CC1 (some centres undefined)
0.004 µM | CCc1nonc1C(=O)N[C@H](C(=O)Nc1cc(C(COC)N2C[C@@H](C(F)(F)F)NC2=O)ccn1)[C@H]1CC[C@H](C)CC1 (some centres undefined)
1.21 µM | CC(C)n1nccc1C(=O)N[C@H](C(=O)Nc1cc(O[C@@H]2C[C@@H](C(F)(F)F)NC2=O)ccn1)[C@H]1CC[C@H](C)CC1
0.006 µM | CC[C@H](c1ccnc(NC(=O)[C@H](NC(=O)c2ccnn2C)[C@H]2CC[C@H](C)CC2)c1)N1C[C@@H](C(F)(F)F)NC1=O
